Data: paper PMC7854658, “Structural basis for ligand recognition of the neuropeptide Y Y2 receptor” (Nature Communications, 2021)
Values joined by “and” are separate entries in the source; they are usually repeats but may differ in a detail not shown here. Identical values can stand only once.

Molecular target: T1, wild-type Y2R (Homo sapiens, UniProt P49146)
T1 construct: expressed in transfected cells; host or cells: HEK293
T1 sequence (P49146 1-381): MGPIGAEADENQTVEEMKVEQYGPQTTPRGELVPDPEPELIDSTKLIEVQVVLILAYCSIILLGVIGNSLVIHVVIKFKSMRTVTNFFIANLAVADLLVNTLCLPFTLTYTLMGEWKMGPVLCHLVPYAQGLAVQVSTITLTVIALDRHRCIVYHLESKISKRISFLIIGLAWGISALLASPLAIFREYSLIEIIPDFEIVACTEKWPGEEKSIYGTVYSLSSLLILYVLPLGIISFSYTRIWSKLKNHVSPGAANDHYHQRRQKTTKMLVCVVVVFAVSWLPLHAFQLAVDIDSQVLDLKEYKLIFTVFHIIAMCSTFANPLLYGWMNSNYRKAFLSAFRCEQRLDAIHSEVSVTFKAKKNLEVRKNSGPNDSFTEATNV
Assay: NPY-induced IP accumulation (IP-One) with or without 1 μM antagonist
Assay type: cell-based
Conditions: WT
Procedure: The plasmid hY2R_eYFP_pVitro2 encoding the WT Y2R and a fluorophore for investigating the receptor localization was used as template for the generation of receptor point mutations as previously described. Mutagenesis PCR was performed using the Phusion High-Fidelity Polymerase (Thermo Fisher Scientific, Waltham, MA, USA). […] The preparations of the plasmid DNA were performed using the Wizard plus Mini or Midi DNA purification kit (Promega, Madison, WI, USA).
To determine the contribution of residues to antagonist binding, IP-One accumulation assays (Cisbio, Codolet, France) were performed. HEK293 cells were seeded into six-well plates and transiently cotransfected with 3200 ng of receptor plasmid DNA and 800 ng of the chimeric G protein (Gα∆6qi4myr) to redirect the Gαi signaling pathway to the Gαq phospholipase C pathway. Transient transfection was carried out using Metafectene as transfection reagent according to the manufacturer’s protocol (Biontex, Munich, Germany) over night. The cells were then reseeded into white 384-well microplates (Greiner Bio-One, Kremsmünster, Austria) at a density of 15,000 cells per well and grown for additional 24 h.
All dilutions were performed in HBSS containing 20 mM LiCl (stimulation buffer) and DMSO with a final concentration of 0.01%.
To determine the amount of cellular IPs, the FRET acceptor (IP1-d2) and the FRET donor (anti-IP1-Cryptate) were reconstituted and diluted in lysis and detection buffer (1:20) as described in the manufacturer’s protocol. Three microliters of both solutions were added, and the cells were incubated on a tumbler for 60 min.

[1] = 1 μM antagonist, source data Fig. 3

Average EC50 ratio [1]: 157.4
EC50 ratio (individual experiments) [1]: 143.5 and 171.2
EC50 ratio (EC50(NPY + 1 μM antagonist)/EC50(NPY)): 144 and 171 and 159
Ratio change (fold) (EC50 ratio (WT)/EC50 ratio (mutant)): 1 fold
SMILES: N=C(N)NCCC[C@H](NC(=O)CC1(CC(=O)N2CCN(C3c4ccccc4NC(=O)c4ccccc43)CC2)CCCC1)C(=O)NCCn1c(=O)n(-c2ccccc2)n(-c2ccccc2)c1=O (stereo partly shown) [BIIE0246]
